Legend:
Format in all cases: biochemical
[1] = target: T1, JAK1 (Homo sapiens, UniProt P23458); assay: JAK1 enzyme inhibition test (LANCE method); details: 1 μM test compound; for inhibition at 1 µM: read-out: JAK1 enzyme inhibitory activity (%, 1 μM)
T1 construct: purchased Invitrogen
In short: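 TR-FRET (LANCE) with ULight-JAK1 peptide (300 nM working solution) and ATP (150 μM working solution) in HEPES pH 7.5, MgCl2, EGTA, DTT buffer; 1 h at room temperature. EDTA stop plus Eu-anti-phosphotyrosine antibody, 665 nm read after 1 h. Inhibition relative to enzyme-free wells as 100%.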

[2] = target: T2, JAK2 (Homo sapiens, UniProt O60674); assay: JAK2 enzyme inhibition test (LANCE method); details: 1 μM test compound; read-out: JAK2 enzyme inhibitory activity (%, 1 μM)
T2 construct: purchased Invitrogen
In short: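 Recombinant JAK2 (6 ng/mL solution) phosphorylated ULight-JAK1 peptide (300 nM solution) with ATP (45 μM solution) in pH 7.5 HEPES/MgCl2/DTT buffer for 1 hr at room temperature. After EDTA stop and europium anti-phosphotyrosine antibody for 1 hr, TR-FRET read at 665 nm; inhibition relative to enzyme-free wells as 100%.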

[3] = target: T3, JAK3 (Homo sapiens, UniProt P52333); assay: JAK3 enzyme inhibition test (LANCE method); details: 1 μM test compound; for inhibition at 1 µM: read-out: JAK3 enzyme inhibitory activity (%, 1 μM)
T3 construct: purchased Invitrogen
T3 sequence (P52333 1-1124): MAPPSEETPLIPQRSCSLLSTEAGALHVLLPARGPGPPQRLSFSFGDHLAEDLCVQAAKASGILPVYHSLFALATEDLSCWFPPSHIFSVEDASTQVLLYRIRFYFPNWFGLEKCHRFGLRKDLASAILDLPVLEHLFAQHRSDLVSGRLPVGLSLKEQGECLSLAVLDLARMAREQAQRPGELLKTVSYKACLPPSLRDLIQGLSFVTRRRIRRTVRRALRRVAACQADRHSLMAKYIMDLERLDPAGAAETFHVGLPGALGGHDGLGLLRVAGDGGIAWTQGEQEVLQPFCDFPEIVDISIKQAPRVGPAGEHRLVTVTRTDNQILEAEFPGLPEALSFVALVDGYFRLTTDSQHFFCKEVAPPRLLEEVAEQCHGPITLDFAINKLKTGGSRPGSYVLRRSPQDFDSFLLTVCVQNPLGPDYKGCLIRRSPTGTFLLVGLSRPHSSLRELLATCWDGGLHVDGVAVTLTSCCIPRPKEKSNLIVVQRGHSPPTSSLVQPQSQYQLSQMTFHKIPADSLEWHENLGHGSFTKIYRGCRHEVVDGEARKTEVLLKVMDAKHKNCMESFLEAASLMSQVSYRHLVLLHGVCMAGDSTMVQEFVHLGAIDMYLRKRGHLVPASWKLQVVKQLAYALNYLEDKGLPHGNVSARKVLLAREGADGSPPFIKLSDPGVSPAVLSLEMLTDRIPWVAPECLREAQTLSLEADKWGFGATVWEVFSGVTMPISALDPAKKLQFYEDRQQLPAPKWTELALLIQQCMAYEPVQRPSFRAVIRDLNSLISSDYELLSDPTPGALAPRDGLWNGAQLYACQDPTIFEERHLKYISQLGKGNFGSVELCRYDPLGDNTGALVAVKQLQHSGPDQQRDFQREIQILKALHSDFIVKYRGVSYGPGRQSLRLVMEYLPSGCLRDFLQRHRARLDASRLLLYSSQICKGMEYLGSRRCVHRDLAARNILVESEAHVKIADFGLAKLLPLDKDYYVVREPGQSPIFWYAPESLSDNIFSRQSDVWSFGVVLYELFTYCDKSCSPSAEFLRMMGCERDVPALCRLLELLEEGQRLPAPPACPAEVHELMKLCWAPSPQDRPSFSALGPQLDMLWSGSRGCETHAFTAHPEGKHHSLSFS
In short: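 Recombinant JAK3 (12 ng/mL solution) with ULight-JAK1 peptide (300 nM solution) and ATP (15 μM solution) in HEPES pH 7.5 buffer, 1 h at room temperature. EDTA stop with Eu-anti-phosphotyrosine antibody; TR-FRET at 665 nm. Inhibition relative to enzyme-free wells as 100%.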

[4] = target: T4, TYK2 (Homo sapiens, UniProt P29597); assay: TYK2 enzyme inhibition test (LANCE method); details: 1 μM test compound; read-out: TYK2 enzyme inhibitory activity (%, 1 μM)
T4 construct: purchased Invitrogen
In short: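 Recombinant TYK2 (375 ng/mL working solution) with ULight-JAK1 peptide (300 nM working solution) and ATP (30 μM working solution) in HEPES pH 7.5 buffer with MgCl2, EGTA, DTT, Tween20, BSA, reacted 1 h at RT. EDTA-stopped, Eu-anti-phosphotyrosine TR-FRET read at 665 nm; inhibition relative to enzyme-free wells as 100%.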

T4 sequence (P29597 whole entry): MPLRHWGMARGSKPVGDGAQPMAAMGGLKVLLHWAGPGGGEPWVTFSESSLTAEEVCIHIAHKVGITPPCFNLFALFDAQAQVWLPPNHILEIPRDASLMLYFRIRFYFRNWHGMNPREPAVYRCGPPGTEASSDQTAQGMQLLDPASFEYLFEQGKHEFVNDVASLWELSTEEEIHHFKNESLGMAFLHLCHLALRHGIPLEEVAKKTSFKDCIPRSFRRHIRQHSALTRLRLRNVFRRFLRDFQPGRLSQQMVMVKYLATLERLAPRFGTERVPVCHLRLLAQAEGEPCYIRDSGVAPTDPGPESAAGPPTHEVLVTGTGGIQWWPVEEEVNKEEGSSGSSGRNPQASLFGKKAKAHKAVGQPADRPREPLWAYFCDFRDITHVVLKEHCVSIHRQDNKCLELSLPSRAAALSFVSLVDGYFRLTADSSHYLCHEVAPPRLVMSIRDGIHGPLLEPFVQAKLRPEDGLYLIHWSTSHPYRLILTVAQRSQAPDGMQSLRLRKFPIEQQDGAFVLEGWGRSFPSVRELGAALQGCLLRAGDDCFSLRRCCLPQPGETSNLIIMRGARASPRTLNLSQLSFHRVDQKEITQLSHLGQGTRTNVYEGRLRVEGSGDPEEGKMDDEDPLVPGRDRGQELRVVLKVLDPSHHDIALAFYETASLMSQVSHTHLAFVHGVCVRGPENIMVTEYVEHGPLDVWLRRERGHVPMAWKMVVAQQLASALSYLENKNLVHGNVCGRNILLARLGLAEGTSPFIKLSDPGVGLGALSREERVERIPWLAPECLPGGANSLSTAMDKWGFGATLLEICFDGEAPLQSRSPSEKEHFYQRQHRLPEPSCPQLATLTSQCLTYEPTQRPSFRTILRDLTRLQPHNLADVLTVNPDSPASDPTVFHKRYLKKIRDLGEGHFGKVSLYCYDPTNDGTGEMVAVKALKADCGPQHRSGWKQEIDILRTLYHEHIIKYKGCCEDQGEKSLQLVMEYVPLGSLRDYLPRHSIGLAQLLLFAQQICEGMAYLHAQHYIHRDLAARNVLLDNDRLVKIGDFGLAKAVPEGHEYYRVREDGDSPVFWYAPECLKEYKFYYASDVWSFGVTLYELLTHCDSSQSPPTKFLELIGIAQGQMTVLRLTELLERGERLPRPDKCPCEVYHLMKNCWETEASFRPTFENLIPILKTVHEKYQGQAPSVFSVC
T1 sequence (P23458 whole entry): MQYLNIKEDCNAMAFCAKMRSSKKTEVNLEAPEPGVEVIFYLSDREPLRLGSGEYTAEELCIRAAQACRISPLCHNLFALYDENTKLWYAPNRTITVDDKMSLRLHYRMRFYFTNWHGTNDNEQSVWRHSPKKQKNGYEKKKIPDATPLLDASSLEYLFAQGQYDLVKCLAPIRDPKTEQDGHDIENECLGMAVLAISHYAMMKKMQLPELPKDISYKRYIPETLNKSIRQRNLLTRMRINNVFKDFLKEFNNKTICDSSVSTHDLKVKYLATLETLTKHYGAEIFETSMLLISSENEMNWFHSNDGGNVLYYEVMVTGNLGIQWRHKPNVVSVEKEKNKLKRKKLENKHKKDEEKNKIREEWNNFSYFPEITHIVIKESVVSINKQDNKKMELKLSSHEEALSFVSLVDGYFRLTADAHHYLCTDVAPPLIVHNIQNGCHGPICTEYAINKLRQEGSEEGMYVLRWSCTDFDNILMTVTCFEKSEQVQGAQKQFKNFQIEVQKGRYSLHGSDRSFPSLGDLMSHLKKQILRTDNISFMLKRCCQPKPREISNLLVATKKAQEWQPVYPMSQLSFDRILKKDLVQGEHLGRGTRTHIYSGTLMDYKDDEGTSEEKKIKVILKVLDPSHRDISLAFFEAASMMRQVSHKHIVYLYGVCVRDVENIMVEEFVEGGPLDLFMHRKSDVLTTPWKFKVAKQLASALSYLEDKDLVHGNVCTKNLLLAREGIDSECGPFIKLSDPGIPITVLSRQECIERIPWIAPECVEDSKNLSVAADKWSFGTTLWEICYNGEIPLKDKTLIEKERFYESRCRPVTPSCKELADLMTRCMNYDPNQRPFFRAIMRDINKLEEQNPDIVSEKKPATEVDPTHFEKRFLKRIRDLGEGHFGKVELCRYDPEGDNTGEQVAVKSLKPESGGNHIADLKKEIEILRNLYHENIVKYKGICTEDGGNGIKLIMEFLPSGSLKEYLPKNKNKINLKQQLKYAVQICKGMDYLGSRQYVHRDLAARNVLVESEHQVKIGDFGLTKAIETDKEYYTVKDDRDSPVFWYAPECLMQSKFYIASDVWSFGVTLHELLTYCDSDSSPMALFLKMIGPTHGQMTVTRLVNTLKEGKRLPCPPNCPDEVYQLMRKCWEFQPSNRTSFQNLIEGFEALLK
T2 sequence (O60674 whole entry): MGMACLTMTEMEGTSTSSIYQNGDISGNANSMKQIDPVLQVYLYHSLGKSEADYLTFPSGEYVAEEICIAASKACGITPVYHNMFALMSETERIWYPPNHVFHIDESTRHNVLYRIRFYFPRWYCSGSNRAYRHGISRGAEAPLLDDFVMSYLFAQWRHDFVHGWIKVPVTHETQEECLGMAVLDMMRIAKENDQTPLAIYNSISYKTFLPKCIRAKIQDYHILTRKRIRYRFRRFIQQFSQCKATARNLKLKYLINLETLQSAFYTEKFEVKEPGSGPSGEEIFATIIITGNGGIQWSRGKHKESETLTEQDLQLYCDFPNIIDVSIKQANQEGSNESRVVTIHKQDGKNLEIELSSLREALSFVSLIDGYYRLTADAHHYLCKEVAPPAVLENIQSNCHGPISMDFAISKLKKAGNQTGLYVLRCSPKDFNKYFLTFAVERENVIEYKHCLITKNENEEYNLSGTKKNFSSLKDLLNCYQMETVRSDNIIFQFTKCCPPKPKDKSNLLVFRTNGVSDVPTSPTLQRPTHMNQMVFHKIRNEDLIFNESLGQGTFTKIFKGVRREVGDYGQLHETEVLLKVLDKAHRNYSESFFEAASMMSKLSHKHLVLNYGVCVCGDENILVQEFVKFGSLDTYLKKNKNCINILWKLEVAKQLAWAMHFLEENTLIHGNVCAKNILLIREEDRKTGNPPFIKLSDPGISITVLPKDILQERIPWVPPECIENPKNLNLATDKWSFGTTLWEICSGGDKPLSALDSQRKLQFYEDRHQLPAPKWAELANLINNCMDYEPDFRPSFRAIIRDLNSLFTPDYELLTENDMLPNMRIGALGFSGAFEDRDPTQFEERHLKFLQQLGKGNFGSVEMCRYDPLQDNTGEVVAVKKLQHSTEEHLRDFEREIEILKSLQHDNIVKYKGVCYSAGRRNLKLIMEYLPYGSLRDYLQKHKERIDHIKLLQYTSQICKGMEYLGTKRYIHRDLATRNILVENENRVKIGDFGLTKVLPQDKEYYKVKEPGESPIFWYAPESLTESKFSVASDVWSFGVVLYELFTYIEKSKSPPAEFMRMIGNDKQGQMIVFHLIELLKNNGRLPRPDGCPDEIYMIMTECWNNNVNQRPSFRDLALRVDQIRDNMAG

SMILES	inhibition at 1 µM [1] [%]	inhibition at 1 µM [2] [%]	inhibition at 1 µM [3] [%]	inhibition at 1 µM [4] [%]	JAK1 enzyme inhibitory activity (%, 1 μM) ([1]; 1 µM) [%]	JAK3 enzyme inhibitory activity (%, 1 μM) ([3]; 1 µM) [%]
CN(c1cc(-c2cn(-c3c(F)cccc3C#N)c(=O)c3c(N)n[nH]c23)nn1C)C1CCCC1 [Example 123, 2-(3-amino-7-(5-(cyclopentyl(methyl)amino)-1-methyl-1H-pyrazol-3-yl)-4-oxo-1,4-dihydro-5H-pyrazolo[4,3-c]pyridin-5-yl)-3-fluorobenzonitrile]	97	94	95	100		
CO[C@]1(c2cc(-c3cn(-c4c(F)cccc4F)c(=O)c4c(N)n[nH]c34)nn2C)C[C@H](C(=O)N(C)C)C1 [Example 124, cis-3-(3-(3-amino-5-(2,6-difluorophenyl)-4-oxo-4,5-dihydro-1H-pyrazolo[4,3-c]pyridin-7-yl)-1-methyl-1H-pyrazol-5-yl)-3-methoxy-N,N-dimethylcyclobutanecarboxamide]	99	99	100	101		
CN(C)[C@@H]1CCN(c2cc(-c3cn(-c4c(F)cccc4F)c(=O)c4c(N)n[nH]c34)nn2C)C1 [Example 125, 3-amino-5-(2,6-difluorophenyl)-7-(5-((3R)-3-(dimethylamino)pyrrolidin-1-yl)-1-methyl-1H-pyrazol-3-yl)-1,5-dihydro-4H-pyrazolo[4,3-c]pyridin-4-one]	98	98	99	99		
CN(C)C[C@H]1CCCN1c1cc(-c2cn(-c3c(F)cccc3F)c(=O)c3c(N)n[nH]c23)nn1C [Example 126, 3-amino-5-(2,6-difluorophenyl)-7-(5-((2R)-2-((dimethylamino)methyl)pyrrolidin-1-yl)-1-methyl-1H-pyrazol-3-yl)-1,5-dihydro-4H-pyrazolo[4,3-c]pyridin-4-one]	92	98	99	98		
Cn1nc(-c2cn(-c3c(F)cccc3F)c(=O)c3c(N)n[nH]c23)cc1N1CCC(C)(C#N)CC1 [Example 127, 1-(3-(3-amino-5-(2,6-difluorophenyl)-4-oxo-4,5-dihydro-1H-pyrazolo[4,3-c]pyridin-7-yl)-1-methyl-1H-pyrazol-5-yl)-4-methylpiperidine-4-carbonitrile]	99	99	100	100		
COC[C@H]1CCCN1c1cc(-c2cn(-c3c(F)cccc3F)c(=O)c3c(N)n[nH]c23)nn1C [Example 128, 3-amino-5-(2,6-difluorophenyl)-7-(5-((2R)-2-(methoxymethyl)pyrrolidin-1-yl)-1-methyl-1H-pyrazol-3-yl)-1,5-dihydro-4H-pyrazolo[4,3-c]pyridin-4-one]	98	98	99	100		
COC1(c2cc(-c3cn(-c4c(F)cccc4F)c(=O)c4c(N)n[nH]c34)nn2C)CCS(=O)(=O)CC1 [Example 129, 3-amino-5-(2,6-difluorophenyl)-7-(5-(4-methoxy-1,1-dioxidotetrahydro-2H-thiopyran-4-yl)-1-methyl-1H-pyrazol-3-yl)-1,5-dihydro-4H-pyrazolo[4,3-c]pyridin-4-one]	97	99	99	100		
COC1(c2cc(-c3cn(-c4c(F)cccc4F)c(=O)c4c(N)n[nH]c34)nn2C)CN(C(=O)C(C)C)C1 [Example 130, 3-amino-5-(2,6-difluorophenyl)-7-(5-(1-isobutyryl-3-methoxyazetidin-3-yl)-1-methyl-1H-pyrazol-3-yl)-1,5-dihydro-4H-pyrazolo[4,3-c]pyridin-4-one]	96	98	99	101		
COC1(c2cc(-c3cn(-c4c(F)cccc4F)c(=O)c4c(N)n[nH]c34)nn2C)CN(C(C)=O)C1 [Example 131, 7-(5-(1-acetyl-3-methoxyazetidin-3-yl)-1-methyl-1H-pyrazol-3-yl)-3-amino-5-(2,6-difluorophenyl)-1,5-dihydro-4H-pyrazolo[4,3-c]pyridin-4-one]	95	98	99	100		
COC1(c2cc(-c3cn(-c4c(F)cccc4F)c(=O)c4c(N)n[nH]c34)nn2C)CN(S(C)(=O)=O)C1 [Example 132, 3-amino-5-(2,6-difluorophenyl)-7-(5-(3-methoxy-1-(methylsulfonyl)azetidin-3-yl)-1-methyl-1H-pyrazol-3-yl)-1,5-dihydro-4H-pyrazolo[4,3-c]pyridin-4-one]	94	98	99	100		
C[C@H](C1CC1)n1cc(-c2cc(N3CCC(C)(O)CC3)n(C)n2)c2[nH]nc(N)c2c1=O [Example 133, 3-amino-5-((1R)-1-cyclopropylethyl)-7-(5-(4-hydroxy-4-methylpiperidin-1-yl)-1-methyl-1H-pyrazol-3-yl)-1,5-dihydro-4H-pyrazolo[4,3-c]pyridin-4-one]	91	87	96	99		
CC(C)[C@H](C)n1cc(-c2cc(N(C)C3CCCC3)n(C)n2)c2[nH]nc(N)c2c1=O [Example 134, 3-amino-7-(5-(cyclopentyl(methyl)amino)-1-methyl-1H-pyrazol-3-yl)-5-((2S)-3-methylbutan-2-yl)-1,5-dihydro-4H-pyrazolo[4,3-c]pyridin-4-one]	97	98	99	99		
COC[C@H]1CCCN1c1cc(-c2cn([C@@H](C)C(C)C)c(=O)c3c(N)n[nH]c23)nn1C [Example 135, 3-amino-7-(5-((2R)-2-(methoxymethyl)pyrrolidin-1-yl)-1-methyl-1H-pyrazol-3-yl)-5-((2S)-3-methylbutan-2-yl)-1,5-dihydro-4H-pyrazolo[4,3-c]pyridin-4-one]	96	98	99	100		
COC1(c2cc(-c3cn([C@@H](C)C(C)C)c(=O)c4c(N)n[nH]c34)nn2C)CN(S(=O)(=O)C(C)C)C1 [Example 136, 3-amino-7-(5-(1-(isopropylsulfonyl)-3-methoxyazetidin-3-yl)-1-methyl-1H-pyrazol-3-yl)-5-((2S)-3-methylbutan-2-yl)-1,5-dihydro-4H-pyrazolo[4,3-c]pyridin-4-one]	80	98	98	100		
COC1(c2cc(-c3cn(C(C#N)C(C)C)c(=O)c4c(N)n[nH]c34)nn2C)CCC(F)(F)CC1 (stereo not drawn) [Example 137, 2-(3-amino-7-(5-(4,4-difluoro-1-methoxycyclohexyl)-1-methyl-1H-pyrazol-3-yl)-4-oxo-1,4-dihydro-5H-pyrazolo[4,3-c]pyridin-5-yl)-3-methylbutanenitrile]		99		99	92	98

Reference: patent US9637483B2, “Heterocyclic compound” (TAKEDA PHARMACEUTICAL COMPANY LIMITED, priority 2013, dated 2017)
